Measurements published in PubChem BioAssay AID2060503 (Molecular Pharmacology Branch, DTP, NCI, 2025).

Tested on: 817829-284-R-J1-PDC complex spheroids, viability
Test: Anticancer human tumor 817829-284-R-J1-PDC patient-derived colon adenocarcinoma cell line growth inhibition [GQUAD]
Conditions: for IC50: curve of first compound; for viability, T/C: stronger effect = lower value; active = viability on the fitted dose curve at most 10% of control; inactive = the rest
Source text: DNA G-quadruplex Stabilizer Agents in Combinations in Complex Spheroids
A high-throughput screen of multi-cell type tumor spheroids was designed to identify active combinations of DNA G-quadruplex stabilizer agents and targeted small molecules. Complex spheroids include a stromal component modeled by human endothelial cells (HUVEC) and fibroblasts modeled by human mesenchymal stem cells (MSCs). The concentration ranges selected for each drug and investigational agent were based upon clinically achievable concentrations if the clinical Cmax of the agent was known.
Compounds. The drugs and investigational agents: pidnarulex (CX-5461; NSC782164), APTO-253 (NSC789042), BRACO-19 (NSC847499), peposertib (NSC802822), ceralasertib (NSC780249), elimusertib (NSC800525), camonsertib (NSC841442), AZD-1390 (NSC803789), olaparib (NSC753686), talazoparib (NSC767125), ART-558 (NSC835418), sotorasib (NSC818433), MRTX-1133 (NSC836407), SN-38 (NSC673596), topotecan (NSC609699), etoposide (NSC141540), doxorubicin (NSC123127), gemcitabine (NSC613327), 5-fluorouracil (NSC19893), paclitaxel (NSC125973), vemurafenib (NSC761431), panobinostat (NSC761190), R-306465 (JNJ-16241199; NSC773264), adavosertib (NSC754352), TP-3654 (NSC805149), carboplatin (NSC241240), KSQ-4279 (NSC840948), and staurosporine (NSC755774) were obtained from the National Cancer Institute (NCI) Developmental Therapeutics Program Chemical Repository (34). The FDA-approved anticancer drug set is available from the NCI Developmental Therapeutics Program. […] The stock solutions were prepared in dimethyl sulfoxide (DMSO, Sigma-Aldrich, St. Louis, MO, cat. D2650) at 800-fold the tested concentration and stored at -70 degrees C prior to their use. All drugs and investigational agents were tested over a range starting from a high concentration at or near the clinical Cmax and decreasing in half-log increments. If the clinical Cmax for an agent had not been determined, the highest concentration tested was 10 microM.
2.3 Cell Culture. All cells were maintained in an incubator at 37 degrees C and 5% CO2 with 95% humidity. The PDC lines were cultured according to standard operating procedures established by the NCI PDMR. All PDCs were thawed and cultured in Matrigel-coated flasks prepared with a working solution of 1X Ham's F-12 nutrient mix, without supplementation (Invitrogen, cat. 11765054), 100 U/mL penicillin-streptomycin (Invitrogen, cat. 15140122), and 2.5% Matrigel (Corning Inc., cat. 354248) for the first three passages. The 857933-349-R-J2-PDC line was cultured in 6C/Colon 1B media, which includes advanced DMEM/F-12 (Thermo Fisher Scientific, cat. 12634028), 10 mM HEPES (Thermo Fisher Scientific, cat. 15630080), 1X GlutaMAX supplement (Thermo Fisher Scientific, cat. 35050061), 0.1 mg/mL primocin (InvivoGen, cat. ant-pm-2), 10% defined fetal bovine serum, heat inactivated (HyClone Laboratories Inc., cat. SH30070.03HI), 50% L-WRN conditioned media (ATCC, cat. CRL-3276), 1.25 mM N-Acetyl-L-cysteine (Sigma-Aldrich, cat. A9165), 10 mM nicotinamide (Sigma-Aldrich, cat. N0636), 1X B-27 supplement (Thermo Fisher Scientific, cat. 17504044), 1X N-2 supplement (Thermo Fisher Scientific, cat. 17502048), 10 microM Y-27632 dihydrochloride (Tocris Bioscience, cat. 1254), and 50 ng/mL human EGF recombinant protein (Thermo Fisher Scientific, cat. PHG0311). The 485176-168-R4-J1-PDC line was cultured in Panc media, which includes all 6C/Colon 1B media components plus 100 ng/mL human FGF-10 (Thermo Fisher Scientific, cat. 100-26), 500 nM SB-431542 (Selleckchem, cat. S1067), and gastrin (Tocris, cat. 3006).
[…]
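Note: spheroids exposed to agents for 7 days before readout.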
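Throughout, for viability, T/C: percent viability relative to DMSO vehicle control taken as 100%.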

CC(=O)O[C@H]1C(=O)[C@@]2(C)[C@H]([C@H](OC(=O)c3ccccc3)[C@]3(O)C[C@H](OC(=O)[C@H](O)[C@@H](NC(=O)c4ccccc4)c4ccccc4)C(C)=C1C3(C)C)[C@]1(OC(C)=O)CO[C@@H]1C[C@@H]2O + Cc1[nH]c2ccc(F)cc2c1-c1nc2c3cccnc3c3ncccc3c2[nH]1
< 0.0316 µM: IC50 (second compound 0.0316 µM) | IC50 (second compound 0.1 µM) | IC50 (second compound 0.316 µM) | IC50 (second compound 1 µM) | IC50 (second compound 3.16 µM) | IC50 (second compound 10 µM)
active: viability, T/C (second compound 0.0316 µM, first compound 0.0316 µM) 7.69% | viability, T/C (second compound 0.0316 µM, first compound 0.1 µM) 5% | viability, T/C (second compound 0.0316 µM, first compound 0.316 µM) 4.12% | viability, T/C (second compound 0.0316 µM, first compound 1 µM) 4.33% | viability, T/C (second compound 0.0316 µM, first compound 3.16 µM) 3.69% | viability, T/C (second compound 0.0316 µM, first compound 10 µM) 5.32% | viability, T/C (second compound 0.1 µM, first compound 0.0316 µM) 6.62% | viability, T/C (second compound 0.1 µM, first compound 0.1 µM) 5.4% | viability, T/C (second compound 0.1 µM, first compound 0.316 µM) 5.3% | viability, T/C (second compound 0.1 µM, first compound 1 µM) 3.81% | viability, T/C (second compound 0.1 µM, first compound 3.16 µM) 4.86% | viability, T/C (second compound 0.1 µM, first compound 10 µM) 4.62% | viability, T/C (second compound 0.316 µM, first compound 0.0316 µM) 7.16% | viability, T/C (second compound 0.316 µM, first compound 0.1 µM) 5.87% | viability, T/C (second compound 0.316 µM, first compound 0.316 µM) 4.46% | viability, T/C (second compound 0.316 µM, first compound 1 µM) 3.72% | viability, T/C (second compound 0.316 µM, first compound 3.16 µM) 4.25% | viability, T/C (second compound 0.316 µM, first compound 10 µM) 5.31% | viability, T/C (second compound 1 µM, first compound 0.0316 µM) 7.59% | viability, T/C (second compound 1 µM, first compound 0.1 µM) 6.66% | viability, T/C (second compound 1 µM, first compound 0.316 µM) 6.33% | viability, T/C (second compound 1 µM, first compound 1 µM) 6.63% | viability, T/C (second compound 1 µM, first compound 3.16 µM) 6.34% | viability, T/C (second compound 1 µM, first compound 10 µM) 6.37% | viability, T/C (second compound 3.16 µM, first compound 0.0316 µM) 3.48% | viability, T/C (second compound 3.16 µM, first compound 0.1 µM) 4.37% | viability, T/C (second compound 3.16 µM, first compound 0.316 µM) 3.76% | viability, T/C (second compound 3.16 µM, first compound 1 µM) 3.37% | viability, T/C (second compound 3.16 µM, first compound 3.16 µM) 3.38% | viability, T/C (second compound 3.16 µM, first compound 10 µM) 3.67% | viability, T/C (second compound 10 µM, first compound 0.0316 µM) 3.27% | viability, T/C (second compound 10 µM, first compound 0.1 µM) 3.76% | viability, T/C (second compound 10 µM, first compound 0.316 µM) 3.43% | viability, T/C (second compound 10 µM, first compound 1 µM) 2.91% | viability, T/C (second compound 10 µM, first compound 3.16 µM) 3.42% | viability, T/C (second compound 10 µM, first compound 10 µM) 3.04%
